Data taken from US12371454B2, “Cyclic peptide compound having Kras inhibitory action” (priority 2019, dated 2025).
Like-named read-outs stand apart in the source and are kept apart here. Positions of bridges follow the written chain, without caps; N, C: chain ends. Non-standard residues stand in square brackets, D forms with d. Residues, ends and D or L forms follow the SMILES beside them. *: point of attachment. hPhe(3-Cl-4-CF3) = N[C@@H](CCc1ccc(C(F)(F)F)c(Cl)c1)C(=O)O; hPhe(3-F,4-CF3) = N[C@@H](CCc1ccc(C(F)(F)F)c(F)c1)C(=O)O; hPhe(4-CF3) = N[C@@H](CCc1ccc(C(F)(F)F)cc1)C(=O)O; NMePhe(4-Cl) = CN[C@@H](Cc1ccc(Cl)cc1)C(=O)O; NMePhe(4-Me) = CN[C@@H](Cc1ccc(C)cc1)C(=O)O; Oic = O=C(O)[C@@H]1C[C@@H]2CCCC[C@@H]2N1; NMeGly(cPent) = CN[C@H](C(=O)O)C1CCCC1; Phe(3-I) = N[C@@H](Cc1cccc(I)c1)C(=O)O; NMeCha = CN[C@@H](CC1CCCCC1)C(=O)O; NMehLeu = CN[C@@H](CCC(C)C)C(=O)O; NMeChg = CN[C@H](C(=O)O)C1CCCCC1; NMeF = CN[C@@H](Cc1ccccc1)C(=O)O; NMeD = CN[C@@H](CC(=O)O)C(=O)O; NMeL = CN[C@@H](CC(C)C)C(=O)O; Cba = N[C@@H](CC1CCC1)C(=O)O; NMeV = CN[C@H](C(=O)O)C(C)C; d(β3hA) = C[C@@H](N)CC(=O)O; N(iPr)Gly = CC(C)NCC(=O)O; Pip = O=C(O)[C@@H]1CCCCN1; NMeA = CN[C@@H](C)C(=O)O; NMeAib = CNC(C)(C)C(=O)O; Piperidide = C1CCN(*)CC1; Pyrrolidide = C1CCN(*)C1; Ac5c = NC1(C(=O)O)CCCC1; Aze = O=C(O)[C@@H]1CCN1; Sar = CNCC(=O)O; OAll = C=CCO*

Target: T1, Kras and SOS1 (biotin-tagged human Kras loaded with GDP, His-tagged human SOS1) (Homo sapiens, UniProt P01116, G12D)
T1 construct: made in house; host or cells: E. coli (stated for Kras only)
Experiment: Protein-protein interaction inhibition between Kras and SOS1 (KrasGl2D-SOS PPI) using AlphaScreen
Type: binding
How it was run: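 AlphaScreen format: Ni donor beads capture His-SOS1, streptavidin acceptor beads capture biotinylated Kras (E. coli-expressed, GDP-loaded post-purification). Excite 680 nm, read 520-620 nm.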

[1] = AlphaScreen, biotin-tagged human Kras loaded with GDP, His-tagged human SOS1, read-out: KRAS G12D-SOS PPI IC50

T1 sequence (P01116 1-188 isoform P01116-2 G12D): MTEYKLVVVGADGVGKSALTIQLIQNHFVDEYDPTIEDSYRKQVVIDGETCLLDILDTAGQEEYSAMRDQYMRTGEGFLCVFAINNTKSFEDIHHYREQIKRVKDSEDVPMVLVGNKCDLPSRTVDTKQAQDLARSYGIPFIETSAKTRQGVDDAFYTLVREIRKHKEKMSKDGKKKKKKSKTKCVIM

SMILES | IC50 [1] [nM] | IC50 [nM]
CC(C)C[C@H]1C(=O)N[C@@H](CC2CCC2)C(=O)N(C)CC(=O)N(C)CC(=O)N(C)[C@@H](CC2CCCCC2)C(=O)N(C)CC(=O)N[C@@H](CCc2ccc(C(F)(F)F)c(Cl)c2)C(=O)N2CCC[C@H]2C(=O)NC2(CCCC2)C(=O)N(C)[C@@H](C(C)C)C(=O)N[C@H](C)CC(=O)N1C [Compound 290] (cyclo([Ac5c][NMeV][d(β3hA)][NMeL][Cba][Sar][Sar][NMeCha][Sar][hPhe(3-Cl-4-CF3)]P)) | 160 | –
CC[C@H](C)[C@@H]1NC(=O)[C@H](C)N(C)C(=O)C[C@@H](C(=O)N2CCCCC2)N(C)C(=O)[C@H](C(C)C)N(C)C(=O)C2(CCCC2)NC(=O)[C@@H]2CCCN2C(=O)[C@H](CCc2ccc(C(F)(F)F)c(Cl)c2)NC(=O)[C@H]2CCCN2C(=O)[C@H](CC2CCCCC2)N(C)C(=O)[C@@H]2CCN2C(=O)[C@H](C)N(C)C1=O [Compound 293] ([NMeA]I[NMeA][Aze][NMeCha][dP][hPhe(3-Cl-4-CF3)]P[Ac5c][NMeV][NMeD]-Piperidide; lactam N-11) | 120 | –
CC[C@H](C)[C@@H]1NC(=O)[C@H](CC(C)C)N(C)C(=O)C[C@@H](C(=O)N2CCCCC2)N(C)C(=O)[C@H](CC(C)C)NC(=O)C(C)(C)N(C)C(=O)[C@H](CC(C)C)NC(=O)[C@H](Cc2cccc(I)c2)NC(=O)CN(C)C(=O)[C@H](Cc2ccc(Cl)cc2)N(C)C(=O)CN(C)C(=O)CN(C)C1=O [Compound 295] ([NMeL]I[Sar][Sar][NMePhe(4-Cl)][Sar][Phe(3-I)]L[NMeAib]L[NMeD]-Piperidide; lactam N-11) | 68 | –
CC[C@H](C)[C@@H]1NC(=O)[C@H](CC(C)C)N(C)C(=O)C[C@@H](C(=O)N2CCCCC2)N(C)C(=O)[C@H](C2CCCCC2)N(C)C(=O)C2(CCCC2)NC(=O)[C@@H]2C[C@@H]3CCCC[C@@H]3N2C(=O)[C@H](CCc2ccc(C(F)(F)F)c(Cl)c2)NC(=O)CN(C)C(=O)[C@H](CC2CCCCC2)N(C)C(=O)CN(C)C(=O)CN(C)C1=O [Compound 297] ([NMeL]I[Sar][Sar][NMeCha][Sar][hPhe(3-Cl-4-CF3)][Oic][Ac5c][NMeChg][NMeD]-Piperidide; lactam N-11) | – | 49
CC[C@H](C)[C@@H]1NC(=O)[C@H](CC(C)C)N(C)C(=O)C[C@@H](C(=O)N2CCCCC2)NC(=O)[C@H](CC(C)C)N(C)C(=O)C2(CCCC2)NC(=O)[C@@H]2CCCN2C(=O)[C@H](CCc2ccc(C(F)(F)F)c(F)c2)NC(=O)CN(C)C(=O)[C@H](CC2CCCCC2)N(C)C(=O)CN(C)C(=O)CN(C)C1=O [Compound 298] ([NMeL]I[Sar][Sar][NMeCha][Sar][hPhe(3-F,4-CF3)]P[Ac5c][NMeL]D-Piperidide; lactam N-11) | 21 | –
CC[C@H](C)[C@@H]1NC(=O)[C@H](C)N(C)C(=O)C[C@@H](C)NC(=O)[C@H](CC(C)C)N(C)C(=O)[C@H](Cc2ccccc2)N(C)C(=O)[C@@H]2CCCCN2C(=O)[C@H](CCc2ccc(C(F)(F)F)cc2)NC(=O)CN(C)C(=O)[C@H](Cc2ccc(Cl)cc2)N(C)C(=O)CN(C)C(=O)CN(C)C1=O [Compound 299] (cyclo(I[Sar][Sar][NMePhe(4-Cl)][Sar][hPhe(4-CF3)][Pip][NMeF][NMeL][d(β3hA)][NMeA])) | 130 | –
CC[C@H](C)[C@@H]1NC(=O)[C@H](CCC(C)C)N(C)C(=O)C[C@@H](C(=O)N(C)C)N(C)C(=O)[C@H](C2CCCC2)N(C)C(=O)C2(CCCC2)NC(=O)[C@@H]2CCCN2C(=O)[C@H](CCc2ccc(C(F)(F)F)c(Cl)c2)NC(=O)CN(C)C(=O)[C@H](Cc2ccc(C)cc2)N(C)C(=O)[C@@H]2CCN2C(=O)[C@H](C)NC1=O [Compound 303, (5S,8S,11S,15S,18S,23aS,29S,35S,37aS)-8-((S)-sec-butyl)-29-(3-chloro-4-(trifluoromethyl)phenethyl)-18-cyclopentyl-11-isopentyl-N,N,5,12,16,19,33,36-octamethyl-35-(4-methylbenzyl)-4,7,10,13,17,20,23,28,31,34,37-undecaoxotetratriacontahydro-2H,4H-spiro[azeto[2,1-u]pyrrolo[2,1-i][1,4,7,10,13,16,19,22,25,28,31]undecaazacyclotetratriacontine-21,1′-cyclopentane]-15-carboxamide] ([NMehLeu]IA[Aze][NMePhe(4-Me)][Sar][hPhe(3-Cl-4-CF3)]P[Ac5c][NMeGly(cPent)][NMeD]-NMe2; lactam N-11) | 0.68 | –
CC[C@H](C)[C@@H]1NC(=O)[C@H](CC(C)C)N(C)C(=O)C[C@@H](C)NC(=O)[C@H](C(C)C)N(C)C(=O)C2(CCCC2)NC(=O)[C@@H]2CCCN2C(=O)[C@H](CCc2ccc(C(F)(F)F)c(Cl)c2)NC(=O)CN(C)C(=O)[C@H](CC2CCCCC2)N(C)C(=O)CN(C)C(=O)CN(C(C)C)C1=O [Compound 305] (cyclo([Ac5c][NMeV][d(β3hA)][NMeL]I[N(iPr)Gly][Sar][NMeCha][Sar][hPhe(3-Cl-4-CF3)]P)) | 170 | –
C=CCOC(=O)CC[C@@H]1NC(=O)[C@H](CCc2ccc(C(F)(F)F)cc2)NC(=O)CN(C)C(=O)[C@H](Cc2ccc(Cl)cc2)N(C)C(=O)CN(C)C(=O)CN(C)C(=O)[C@H]([C@@H](C)CC)NC(=O)[C@H](C)N(C)C(=O)C[C@@H](C(=O)N2CCCC2)NC(=O)[C@H](CC(C)C)N(C)C(=O)[C@H](Cc2ccccc2)N(C)C1=O [Compound 306] ([NMeA]I[Sar][Sar][NMePhe(4-Cl)][Sar][hPhe(4-CF3)]E(OAll)[NMeF][NMeL]D-Pyrrolidide; lactam N-11) | 44 | –
